The record followed here is patent US9382234B2, “Enhancer of Zeste Homolog 2 inhibitors” (GlaxoSmithKline LLC, priority 2012, dated 2016).

The target in this test is T1, EZH2 within the PRC2 complex (Homo sapiens, UniProt Q15910).
T1 construct: FLAG; made in house; host or cells: Sf9 cells
T1 sequence (Q15910 whole entry): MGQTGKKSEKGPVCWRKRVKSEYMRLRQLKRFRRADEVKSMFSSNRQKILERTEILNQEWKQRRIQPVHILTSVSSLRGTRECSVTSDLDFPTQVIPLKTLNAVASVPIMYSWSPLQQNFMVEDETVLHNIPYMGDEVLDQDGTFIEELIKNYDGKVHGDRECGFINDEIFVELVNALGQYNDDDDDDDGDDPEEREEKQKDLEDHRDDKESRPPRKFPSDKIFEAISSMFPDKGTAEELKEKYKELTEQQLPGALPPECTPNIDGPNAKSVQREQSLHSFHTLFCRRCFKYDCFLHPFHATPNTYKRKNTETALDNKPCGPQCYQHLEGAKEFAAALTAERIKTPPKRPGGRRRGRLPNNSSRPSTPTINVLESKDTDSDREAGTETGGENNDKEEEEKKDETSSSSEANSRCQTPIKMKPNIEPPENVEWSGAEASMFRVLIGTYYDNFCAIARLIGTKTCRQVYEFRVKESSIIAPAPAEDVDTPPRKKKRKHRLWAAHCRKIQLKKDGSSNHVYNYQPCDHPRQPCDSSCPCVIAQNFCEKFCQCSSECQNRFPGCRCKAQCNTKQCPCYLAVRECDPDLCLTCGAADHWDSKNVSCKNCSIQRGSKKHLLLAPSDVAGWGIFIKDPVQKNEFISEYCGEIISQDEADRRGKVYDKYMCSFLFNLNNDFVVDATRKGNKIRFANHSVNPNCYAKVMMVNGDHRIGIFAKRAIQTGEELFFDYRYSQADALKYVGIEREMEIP
T1 sequence (O75530 whole entry partner): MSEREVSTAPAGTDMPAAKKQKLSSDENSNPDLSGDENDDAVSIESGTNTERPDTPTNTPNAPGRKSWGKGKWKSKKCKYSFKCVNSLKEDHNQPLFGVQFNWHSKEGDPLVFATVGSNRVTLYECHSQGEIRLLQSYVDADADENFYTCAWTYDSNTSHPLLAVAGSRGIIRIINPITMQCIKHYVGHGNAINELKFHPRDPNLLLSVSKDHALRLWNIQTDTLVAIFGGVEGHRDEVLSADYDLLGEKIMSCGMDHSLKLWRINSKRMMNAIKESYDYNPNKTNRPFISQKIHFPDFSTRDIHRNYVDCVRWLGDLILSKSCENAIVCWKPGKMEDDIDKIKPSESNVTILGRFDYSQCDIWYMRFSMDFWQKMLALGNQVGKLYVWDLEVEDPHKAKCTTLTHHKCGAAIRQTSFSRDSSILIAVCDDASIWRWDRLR
T1 sequence (Q15022 whole entry partner): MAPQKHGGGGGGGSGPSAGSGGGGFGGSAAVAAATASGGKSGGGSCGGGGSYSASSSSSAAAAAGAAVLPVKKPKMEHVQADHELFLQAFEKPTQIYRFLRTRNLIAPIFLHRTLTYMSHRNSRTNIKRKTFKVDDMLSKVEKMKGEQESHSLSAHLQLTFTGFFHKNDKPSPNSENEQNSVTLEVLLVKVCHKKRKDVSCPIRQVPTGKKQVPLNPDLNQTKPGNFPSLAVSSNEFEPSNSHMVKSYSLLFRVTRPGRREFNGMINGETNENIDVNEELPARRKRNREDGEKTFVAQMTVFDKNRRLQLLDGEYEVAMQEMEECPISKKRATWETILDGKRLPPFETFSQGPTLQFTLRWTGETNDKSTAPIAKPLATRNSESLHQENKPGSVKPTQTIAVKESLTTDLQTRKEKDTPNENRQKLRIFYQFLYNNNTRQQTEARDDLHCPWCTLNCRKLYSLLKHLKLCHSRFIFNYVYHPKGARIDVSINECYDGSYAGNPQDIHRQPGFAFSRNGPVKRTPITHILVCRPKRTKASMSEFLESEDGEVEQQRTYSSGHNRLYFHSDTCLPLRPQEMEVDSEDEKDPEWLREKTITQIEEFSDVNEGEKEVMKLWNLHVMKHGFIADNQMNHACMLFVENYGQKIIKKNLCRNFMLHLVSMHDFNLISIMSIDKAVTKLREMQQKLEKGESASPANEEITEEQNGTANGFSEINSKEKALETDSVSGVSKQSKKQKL
T1 sequence (Q09028 whole entry partner): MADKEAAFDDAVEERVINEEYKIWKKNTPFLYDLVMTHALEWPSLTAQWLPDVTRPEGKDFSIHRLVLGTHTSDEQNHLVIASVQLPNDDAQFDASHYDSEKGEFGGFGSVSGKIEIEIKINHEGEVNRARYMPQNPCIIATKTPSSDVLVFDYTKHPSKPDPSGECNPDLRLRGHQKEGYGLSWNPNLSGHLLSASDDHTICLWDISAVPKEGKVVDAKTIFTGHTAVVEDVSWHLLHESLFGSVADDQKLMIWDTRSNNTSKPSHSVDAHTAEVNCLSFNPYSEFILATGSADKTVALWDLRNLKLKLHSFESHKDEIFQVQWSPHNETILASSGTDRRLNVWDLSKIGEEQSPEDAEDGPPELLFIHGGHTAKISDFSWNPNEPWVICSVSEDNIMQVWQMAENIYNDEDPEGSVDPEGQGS
T1 sequence (Q6ZN18 whole entry partner): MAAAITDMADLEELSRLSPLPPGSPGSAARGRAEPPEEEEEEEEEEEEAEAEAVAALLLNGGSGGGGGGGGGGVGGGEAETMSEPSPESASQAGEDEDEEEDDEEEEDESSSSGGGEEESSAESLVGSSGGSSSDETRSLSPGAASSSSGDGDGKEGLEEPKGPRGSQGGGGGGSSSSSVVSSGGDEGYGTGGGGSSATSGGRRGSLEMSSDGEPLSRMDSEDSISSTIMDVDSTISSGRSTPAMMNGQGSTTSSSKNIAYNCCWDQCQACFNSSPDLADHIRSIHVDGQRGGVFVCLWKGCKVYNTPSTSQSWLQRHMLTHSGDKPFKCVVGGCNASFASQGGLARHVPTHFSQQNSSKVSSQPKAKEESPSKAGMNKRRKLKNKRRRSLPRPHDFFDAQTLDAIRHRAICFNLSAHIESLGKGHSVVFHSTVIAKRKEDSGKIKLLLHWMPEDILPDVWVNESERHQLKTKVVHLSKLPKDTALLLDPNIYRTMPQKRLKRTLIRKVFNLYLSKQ
In words: EZH2 methyltransferase scintillation proximity assay (SPA) with PRC2 complex. The conditions noted are these: 3H-SAM methyl transfer to Histone H3 of HeLa mononucleosomes; 30 min preincubation, 1 hour reaction. The test is classed as biochemical. A general note: SPA uses beads or plates that emit light when radiolabelled molecules are held near them.
Usually IC50 stands for the point on the concentration scale where inhibition reaches its midpoint. Higher therefore signals weaker potency. `CCN(c1cc(Cl)cc(C(=O)NCc2c(C)[nH]c(C)cc2=O)c1C)[C@H]1CC[C@H](N(C)C)CC1` [Example 16, 5-Chloro-N-((2,6-dimethyl-4-oxo-1,4-dihydropyridin-3-yl)methyl)-3-(((trans)-4-(dimethylamino)cyclohexyl)(ethyl)amino)-2-methylbenzamide] yielded an IC50 of 3 nM. That is a single-digit nanomolar value.
Then `CCN(c1cc(Br)cc(C(=O)NCc2c(C)[nH]c(C)c(N)c2=O)c1C)[C@H]1CC[C@H](N2CCOCC2)CC1` [Example 20, N-((5-Amino-2,6-dimethyl-4-oxo-1,4-dihydropyridin-3-yl)methyl)-5-bromo-3-(ethyl((1r,4r)-4-morpholinocyclohexyl)amino)-2-methylbenzamide], with 50 nM; and `Cc1cc(=O)c(CNC(=O)c2cc(Cl)cc(OC3CCN(C(=O)OC(C)(C)C)CC3)c2C)c(C)[nH]1` [Example 8, tert-Butyl 4-(5-chloro-3-(((2,6-dimethyl-4-oxo-1,4-dihydropyridin-3-yl)methyl)carbamoyl)-2-methylphenoxy)piperidine-1-carboxylate], with 795 nM; and `CCN(c1cc(Cl)cc(C(=O)NCc2c(C)[nH]c(C)c(N)c2=O)c1C)C1CCOCC1` [Example 17], with 32 nM.
To `Cc1cc(=O)c(CNC(=O)c2cc(Cl)cc(OC3CCN(c4ccncn4)CC3)c2C)c(C)o1` [Example 5, 5-Chloro-N-((2,6-dimethyl-4-oxo-4H-pyran-3-yl)methyl)-2-methyl-3-((1-(pyrimidin-4-yl)piperidin-4-yl)oxy)benzamide] belongs 3160 nM.
To `Cc1cc(=O)c(CNC(=O)c2cc(Cl)cc(O[C@H]3CC[C@H](C(=O)NCc4ccccc4)CC3)c2C)c(C)[nH]1` [Example 4, 3-(((trans)-4-(Benzylcarbamoyl)cyclohexyl)oxy)-5-chloro-N-((2,6-dimethyl-4-oxo-1,4-dihydropyridin-3-yl)methyl)-2-methylbenzamide] belongs 40 nM; to `Cc1cc(=O)c(CNC(=O)c2cc(Cl)cc(O[C@H]3CC[C@H](N(C)C)CC3)c2C)c(C)[nH]1` [Example 14, 5-Chloro-N-((2,6-dimethyl-4-oxo-1,4-dihydropyridin-3-yl)methyl)-3-(((trans)-4-(dimethylamino)cyclohexyl)oxy)-2-methylbenzamide], 395 nM; to `Cc1cc(=O)c(CNC(=O)c2cc(Cl)cc(OC3CCNCC3)c2C)c(C)[nH]1` [Example 9, 5-Chloro-N-((2,6-dimethyl-4-oxo-1,4-dihydropyridin-3-yl)methyl)-2-methyl-3-(piperidin-4-yloxy)benzamide], 2500 nM.
`CCN(c1cc(Br)cc(C(=O)NCc2c(C)[nH]c(C)cc2=O)c1C)C1CCOCC1` [Example 15, 5-Bromo-N-((2,6-dimethyl-4-oxo-1,4-dihydropyridin-3-yl)methyl)-3-(ethyl(tetrahydro-2H-pyran-4-yl)amino)-2-methylbenzamide] showed an IC50 of 40 nM.
Regarding `Cc1cc(=O)c(CNC(=O)c2cc(Cl)cc(OC3CCN(c4ccncn4)CC3)c2C)c(C)[nH]1` [Example 3, 5-Chloro-N-((2,6-dimethyl-4-oxo-1,4-dihydropyridin-3-yl)methyl)-2-methyl-3-((1-(pyrimidin-4-yl)piperidin-4-yl)oxy)benzamide], the IC50 was 251 nM. Compared with the last molecule, the IC50 is about 6.3-fold higher.
To `Cc1cc(=O)c(CNC(=O)c2cc(Cl)cc(O[C@H]3CC[C@H](N4CCCC4)CC3)c2C)c(C)[nH]1` [Example 12, 5-Chloro-N-((2,6-dimethyl-4-oxo-1,4-dihydropyridin-3-yl)methyl)-2-methyl-3-(((1r,4r)-4-(pyrrolidin-1-yl)cyclohexyl)oxy)benzamide] belongs 795 nM; to `CCN(c1cc(Cl)cc(C(=O)NCc2c(C)oc(C)cc2=O)c1C)[C@H]1CC[C@H](N(C)C)CC1` [Example 6, 5-Chloro-N-((2,6-dimethyl-4-oxo-4H-pyran-3-yl)methyl)-3-(((trans)-4-(dimethylamino)cyclohexyl)(ethyl)amino)-2-methylbenzamide], 40 nM; to `Cc1cc(=O)c(CNC(=O)c2cc(Cl)cc(OC3CCN(C(=O)OCc4ccccc4)CC3)c2C)c(C)[nH]1` [Example 1, Benzyl 4-(5-chloro-3-(((2,6-dimethyl-4-oxo-1,4-dihydropyridin-3-yl)methyl)carbamoyl) -2-methylphenoxy)piperidine-1-carboxylate], 200 nM.
Then `Cc1cc(=O)c(CNC(=O)c2cc(Cl)cc(OC3CCN(C)CC3)c2C)c(C)[nH]1` [Example 13, 5-Chloro-N-((2,6-dimethyl-4-oxo-1,4-dihydropyridin-3-yl)methyl)-2-methyl-3-((1-methylpiperidin-4-yl)oxy)benzamide], with 5000 nM; and `CCN(c1cc(Br)cc(C(=O)NCc2c(C)[nH]c(C)cc2=O)c1C)[C@H]1CC[C@H](N(C)C)CC1` [Example 19, 5-Bromo-N-((2,6-dimethyl-4-oxo-1,4-dihydropyridin-3-yl)methyl)-3-(((1r,4r)-4-(dimethylamino)cyclohexyl)(ethyl)amino)-2-methylbenzamide], with 40 nM.
Then `CCN(c1cc(Br)cc(C(=O)NCc2c(C)[nH]c(C)c(N)c2=O)c1C)[C@H]1CC[C@H](N(C)C)CC1` [Example 18, N-((5-Amino-2,6-dimethyl-4-oxo-1,4-dihydropyridin-3-yl)methyl)-5-bromo-3-(((1r,4r)-4-(dimethylamino)cyclohexyl)(ethyl)amino)-2-methylbenzamide], with 32 nM.
For `Cc1cc(=O)c(CNC(=O)c2cc(Cl)cc(OC3CCOCC3)c2C)c(C)[nH]1` [Example 2, 5-Chloro-N-((2,6-dimethyl-4-oxo-1,4-dihydropyridin-3-yl)methyl)-2-methyl-3-((tetrahydro-2H-pyran-4-yl)oxy)benzamide], the half-inhibitory concentration (IC50) worked out at 6310 nM.
